pKi: −log10 of the molar value.
Tested on: WiDr
Assay: Compound was tested for inhibition of 14C-Tryptophan uptake in WiDr human adenocarcinoma cells and the effect was determined at 0-100 uM concentration
Assay type: functional, cell-based

CCCNc1ccc2c(c1)CC(N)(C(=O)O)CC2 (stereo not drawn)
pKi: 5.77

CN(C)c1ccc2c(c1)CC(N)(C(=O)O)CC2 (stereo not drawn)
pKi: 5.85

NC1(C(=O)O)CCc2ccc(N(CCO)CCO)cc2C1 (stereo not drawn)
pKi: 5.85

NC1(C(=O)O)CCc2ccccc2C1 (stereo not drawn)
pKi: 4.43

Nc1ccc2c(c1)CC(N)(C(=O)O)CC2 (stereo not drawn)
pKi: 4.47

CCCN(CCC)c1ccc2c(c1)CC(N)(C(=O)O)CC2 (stereo not drawn)
pKi: 5.13

NC1(C(=O)O)CCc2ccc(N(CCCl)CCCl)cc2C1 (stereo not drawn)
pKi: 6.10

CC(C)Nc1ccc2c(c1)CC(N)(C(=O)O)CC2 (stereo not drawn)
pKi: 6.22

From ChEMBL document CHEMBL1151096, “7-aminoalkyl-2-amino-1,2,3,4-tetrahydro-2-naphthoic acids as inhibitors of tryptophan uptake” (Bioorg Med Chem Lett, 1992)
